“And” between values parts separate entries of the source, which are not always exact repeats. Equal values may be shown once. The source made the active and inactive calls.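 How the source made its calls: active means compounds giving half or more protection of infected cells from virus-caused growth loss, again on retest; inactive means the rest.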 Where a SMILES comes first, the peptide text is derived from it. [ ]: non-standard residue; d: D form. The star is where a group is joined. ξ: configuration not given here. Fmoc = O=C(OCC1c2ccccc2-c2ccccc21)*; Boc = CC(C)(C)OC(=O)*; ξV = CC(C)C(N)C(=O)O; OBn = c1ccc(CO*)cc1
Test system: CEM cells HIV-1 protection, formazan growth assay
Test: NCI AIDS Antiviral Assay
Conditions: for IC50: measured here: growth of uninfected CEM cells
In short: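 Five concentrations of each compound were applied to infected and uninfected human CEM cells. Protection from HIV-1 was judged from growth measured with a soluble formazan assay.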

Row | SMILES | EC50 [µM] | IC50 | outcome
1 | CN(C)CCCNC(=O)c1nc(NC(=O)c2nc(NC(=O)c3nc(NC(=O)c4ccc(C(=O)Nc5cn(C)c(C(=O)Nc6cn(C)c(C(=O)Nc7cn(C)c(C(=O)NCCCN(C)C)n7)n6)n5)nc4)cn3C)cn2C)cn1C | > 50.1 | > 50.1 µM | –
2 | COC(=O)C(Cc1ccccc1I)C1=CCC2(CC1)OCCO2 (stereo unspecified) | > 200 | 49 µM | –
3 | COc1cc(Br)c(C=Nc2cccc3ccc(OS(=O)(=O)c4ccc([N+](=O)[O-])cc4)cc23)cc1OC | > 17.4 | > 17.4 µM | –
4 | OCC1C(O)C(O)[C@@H]2SCCN12 (stereo partly specified) | > 200 | > 200 µM | –
5 | O=C1C=CC(=O)c2c1ccc1c2[nH]c2ccccc21 | – | – | inactive
6 | O=C1C(=O)N(c2ccc(Cl)cc2Cl)C(=O)C(=O)C1c1nc2ccccc2s1 | > 85.1 | > 85.1 µM | –
7 | C#CCN(N=O)C(=O)NCCCCC(NC(=O)OCc1ccccc1)C(=O)OCc1ccccc1 (stereo unspecified) | > 28.2 | > 28.2 µM | –
8 | COC1OC(CO)C(O)C1N (stereo unspecified) | – | – | inactive
9 | COC(=O)C1=C(C(=O)OC)SC(=Cc2ccccc2C=C2SC(C(=O)OC)=C(C(=O)OC)S2)S1 | – | – | inactive
10 | CCOP(=O)(OCC)OCCOCCOP(=O)(OCC)OCC | > 200 | > 200 µM | –
11 | O=C1c2ccccc2C(=O)N1CC[P+](c1ccccc1)(c1ccccc1)c1ccccc1 | > 200 | > 200 µM and 107 µM | –
12 | O=C1N[C@@H]([C@H](CCCCCO)OC(=O)c2ccccc2)CO1 | > 200 | > 200 µM | –
13 | C=CCCCCCCCCC(=O)ON(Cc1ccc(O)c(OC)c1)C(=O)C(F)(F)F | > 200 | > 200 µM | –
14 | COC(=O)C(CC(=O)Nc1ccc(C)cc1)C(=O)C(=O)Nc1ccccc1C(C)C (stereo unspecified) | > 229 | > 229 µM | –
15 | NCCCCNOCCCN | > 200 | > 200 µM | –
16 | Clc1cc2nnn(C3CCCCO3)c2cc1Cl (stereo unspecified) | > 200 | > 200 µM | –
17 | CC(C)(C)c1ccc(O)c(C(c2ccc([N+](=O)[O-])cc2)c2cc(C(C)(C)C)ccc2O)c1 | > 200 | 3.55 µM | –
18 | C=C1C(=O)OC2/C=C(\C=O)CC/C=C(\C)C(O)C[C@@H]12 (stereo partly specified) | > 200 | 2.95 µM | –
19 | NC(=O)CN1CC(C2=C(O)CN(CC(N)=O)C2=O)=CC1=O | – | – | inactive
20 | COc1ccc2c(c1OC)OC1CNc3cc(C)c(C)cc3N=C1C2 (stereo unspecified) | 1.35 | 4.57 µM | –
21 | CC(C)(C)C(=O)OC(N)/C=C/c1ccccc1 (stereo unspecified) | > 200 | > 200 µM | –
22 | CCOC(=O)CCC(NC(=O)c1ccc(OCc2ccc3nc(OC)c(OC)nc3c2)cc1)C(=O)OCC (stereo unspecified) | > 200 | 41.7 µM | –

Row | SMILES | EC50 [µM] | IC50 | outcome
23 | CN1C(c2ccccc2)=CC(=O)C(O)=C(c2ccccc2)S1(=O)=O | > 200 | > 200 µM | –
24 | Nc1ccc(C(=O)N/C(=C\c2ccc3c(c2)OCO3)c2nc3[nH]c(=S)[nH]c(=O)c3[nH]2)cc1 | – | – | inactive
25 | COc1cc(N(CCC#N)CCC#N)ccc1/C(N=Nc1ccc(C)cc1)=N/NC(=O)c1cc(Br)ccc1O | > 200 | 12.6 µM | –
26 | Cc1ccnc(NS(=O)(=O)c2ccc(NC(=O)c3ccc4nc5ccccc5c(Nc5ccc(S(=O)(=O)Nc6nccc(C)n6)cc5)c4c3)cc2)n1 | > 200 | 83.2 µM | –
27 | CCOC(=O)/C(=C\c1ccc(Br)cc1)C(C)=O | > 120 | 70.8 µM | –
28 | CCOC(=O)/C(C#N)=C/c1ccc(OC)cc1 | > 155 | > 155 µM | –
29 | Cn1c2ccccc2c(=O)c2c(O)cc3c(c21)C1OCC(C)(O)C1O3 (stereo unspecified) | > 200 | 33.9 µM | –
30 | COc1cc(C(=O)N(C)N(C)C)cc(OC)c1OC | > 200 | > 200 µM | –
31 | C/C(=N/Nc1ccc([N+](=O)[O-])cc1[N+](=O)[O-])c1ccccc1 | > 3.47 | > 3.47 µM | –
32 | CC(C)C(NC(=O)CNC(=O)OC(C)(C)C)C(=O)NCC(=O)OCc1ccccc1 (stereo not drawn) (Boc-Gly-[ξV]-Gly-OBn) | > 200 | > 200 µM | –
33 | C/C=N/NC1=Nc2ccc(Cl)cc2C(c2ccccc2)=NN1C | > 200 | 33.9 µM | –
34 | O=C(/C=C/c1ccc(OCC(=O)N2CCN(c3ccccc3)CC2)cc1)c1ccccc1 | > 23.4 | > 23.4 µM | –
35 | CC1OC(OC2C(Oc3c(-c4ccc(O)c(O)c4O)oc4cc(O)ccc4c3=O)OC(CO)C(O)C2O)C(O)C(O)C1O (stereo unspecified) | > 200 | 21.9 µM | –
36 | N#Cc1cccc(C=NC23CC4CC(CC(C4)C2)C3)c1 | > 97.7 | 74.1 µM | –
37 | COC(=O)c1ccc(Oc2nc3ccc(C(F)(F)F)cc3nc2-c2ccccc2)cc1 | > 200 | > 200 µM | –
38 | CN1C(=O)CCC2[C@@H]3CC=C4C[C@@H](O)CC[C@]4(C)C3CC[C@@]21C (stereo partly specified) | – | – | inactive
39 | O=C1c2ccccc2N2OC3(N4CCOCC4)CCCC3C12c1ccccc1 (stereo unspecified) | > 5.37 | > 5.37 µM | –
40 | CC(C)(C)OC(=O)NCCCCC(NC(=O)C(Cc1c[nH]c2ccccc12)NC(=O)OCC1c2ccccc2-c2ccccc21)C(=O)N1CCCC1C(=O)NCC(N)=O (stereo unspecified) (Fmoc-WK(Boc)PG-NH2; configuration not given here) | > 200 | > 200 µM | –
41 | COC1=CC(=O)C2C(C1=O)C(c1ccc(OC)c(OC)c1)[C@H]2C (stereo partly specified) | > 12 | > 12 µM | –
42 | CC(C)N=C(NC#N)NS(=O)(=O)c1cnccc1Nc1ccc(Cl)cc1 | > 200 | > 200 µM | –
43 | NC(=O)C(=CNC(=S)N=Nc1c(O)[nH]c2ccccc12)C(N)=O | > 200 | 166 µM | –
44 | CCOC(=O)C1(Cc2ccccc2)SCCCS1 | > 91.2 | > 91.2 µM | –

Row | SMILES | EC50 [µM] | IC50 | outcome
45 | OCCOCn1nc(-c2ccccc2)nc1-c1cnccn1 | > 200 | > 200 µM | –
46 | NC1=NNC(=O)C1N=Nc1ccc(S(=O)(=O)Nc2nccs2)cc1 (stereo unspecified) | > 200 | > 200 µM | –
47 | COC(=O)[C@]1(C)CCC[C@@]2(C)C1CC[C@]13C=C(C(C)C)[C@H](CC21)CC3(Cl)C#N (stereo partly specified) | > 200 | 37.2 µM | –
48 | NC(=O)CCNC(=O)c1ccccc1SC(=O)CCCC[n+]1ccccc1 | 1.95 | 174 µM | –
49 | OCCN(CC(O)C(O)CN(CCO)C(=S)S)C(=S)S (stereo unspecified) | > 58.9 | > 58.9 µM | –
50 | c1nc2nc3c(cn2n1)CCCCC3 | > 200 | > 200 µM | –
51 | NC(=S)N/N=C/C(F)(F)F | > 1450 | 79.4 µM | –
52 | C[N+]1(CCCl)CCc2cc([N+](=O)[O-])ccc2C1 (stereo unspecified) | > 200 | > 200 µM | –
53 | Clc1nc(Nc2nc3ccccc3[nH]2)nc(Cl)c1Cc1ccccc1 | – | – | inactive
54 | CCC(C)c1c(NC(C)=O)o[nH]c1=O (stereo unspecified) | > 200 | > 200 µM | –
55 | O=C1C2CCCC3CCCC(C(=O)N1NC1CCCCC1)C32 (stereo unspecified) | > 200 | 107 µM | –
56 | C(=C/C1CCCOC1)/CCc1ccccc1 (stereo unspecified) | – | – | inactive
57 | O=C(O)CCC1CCc2cccc3occ1c23 (stereo unspecified) | – | – | inactive
58 | Cc1cc2c(cc1Cl)SC(NNc1ccc([N+](=O)[O-])cc1)=NS2(=O)=O | – | – | inactive
59 | CCc1cccc(C)c1NC(=O)CC1C(=O)Nc2ccccc2S1=O (stereo unspecified) | – | – | inactive
60 | CCC(CCCN)Nc1cc(OC)cc2c(C)ccnc12 (stereo unspecified) | > 200 | 7.41 µM | –
61 | CNC(=S)N/N=C(\C(=N/NC(=S)NC)c1ccccn1)c1ccccn1 | > 0.2 | 0.0513 µM | –
62 | CCOP(=O)(OCC)/C(C#N)=C/c1cccn1C(C)C | 151 | > 200 µM | –
63 | CC(C)(C)[Si](C)(C)OC1C(/C=N\O)OC(n2ccc(=O)[nH]c2=O)C1O[Si](C)(C)C(C)(C)C (stereo unspecified) | > 200 | 3.55 µM | –
64 | COc1cc(CCNC(C)=O)cc(OC)c1OC | > 200 | > 200 µM | –
65 | CN(C)CCCCC1CCN(CC(=O)N2c3ccccc3NC(=O)c3ccccc32)CC1 | > 302 | 155 µM | –
66 | COc1ccc(N2C(=O)C(=O)C3(CCCCC3)C2=O)c(OC)c1OC | > 200 | > 200 µM | –

Row | SMILES | EC50 [µM] | IC50 | outcome
67 | N#C/C(=C/NC(=S)Nc1ccccc1)C(N)=O | > 200 | > 200 µM | –
68 | COc1cc(NC(C)=O)c(OC)cc1Cl | – | – | inactive
69 | COc1ccc2nc3ccccc3c(NCCCCCN(CCCl)CCCl)c2c1 | > 245 | 0.282 µM | –
70 | O=[N+]([O-])c1ccc(Cl)cc1C1SCc2nc3ccccc3n21 (stereo unspecified) | – | – | inactive
71 | CC1=CCN(c2ccccn2)OC1c1ccccc1 (stereo unspecified) | > 74.1 | > 74.1 µM | –
72 | COc1ccc2c(c1)C(=O)N1CSCC1C(=O)S2 (stereo unspecified) | > 200 | > 200 µM | –
73 | O=C(NCCc1ccccc1)c1cc2ccc(O)c(O)c2cn1 | > 145 | 4.37 µM and 2.04 µM | –
74 | Cc1cc(C2(c3cc(C)c(O)c4ncccc34)OC(=O)c3ccccc32)c2cccnc2c1O | > 2 | 0.102 µM | –
75 | O=c1[nH]ncc(N/N=C(/C=C/c2ccc(C/C(=N/Nc3cn[nH]c(=O)c3Cl)c3ccccc3)cc2)c2ccccc2)c1Cl | – | – | inactive
76 | CCOC(=O)C(N=O)C(=O)c1ccccc1 (stereo unspecified) | – | – | inactive
77 | CN1NC(=O)SC(=O)c2ccccc2C1=O | – | – | inactive
78 | O=[N+]([O-])c1ccc(OP(=O)(Oc2ccc([N+](=O)[O-])cc2)OP(=O)(Oc2ccc([N+](=O)[O-])cc2)Oc2ccc([N+](=O)[O-])cc2)cc1 | > 200 | 50.1 µM | –
79 | COC(=O)C1=COC(OC2OC(CO)C(O)C(O)C2O)C2C1C=C[C@@]21C=C([C@@H](C)OC(=O)/C=C/c2ccc(O)cc2)C(=O)O1 (stereo partly specified) | > 295 | 158 µM | –
80 | N=C(N)c1ccc(NC(=O)c2ccc(C(=O)Nc3ccc(C(=N)N)cc3)c(N)c2)cc1 | 53.7 | > 200 µM | –
81 | COCCN1C(=O)C(NC(C)=O)[C@H]1COC(C)(C)C (stereo partly specified) | > 661 | > 661 µM | –
82 | COC(=O)c1ccc(C)cc1CC1Cc2ccc(C)cc2C1=O (stereo unspecified) | > 200 | 4.79 µM | –
83 | CN(C)c1nncc2n[nH]nc12 | > 200 | > 200 µM | –
84 | O=C1/C(=C\c2cccc(Oc3ccccc3)c2)S(=O)(=O)C(c2ccccc2)N1c1cc(Cl)ccc1Cl (stereo unspecified) | > 200 | 3.31 µM | –
85 | Cc1ccc(S(=O)(=O)N(CCNC(=O)c2cccc(O)c2O)c2cc3c4c(c2)Oc2cccc5c2C4(C)c2c(cccc2O3)O5)cc1 | > 200 | 10.7 µM | –
86 | CC(=O)c1c(-c2cccc3ccccc23)c(C#N)c(=S)n(C2OC(CO)C(O)C(O)C2O)c1C (stereo unspecified) | > 200 | 132 µM and 53.7 µM | –

— PubChem BioAssay AID179 (DTP/NCI, 2004)
